The source of these data is patent US20160122387A1, “Angiotensin Peptide and Pharmaceutical Compositions for Disease Treatment” (UNIVERSIDADE FEDERAL DE MINAS GERAIS - UFMG, priority 2012, published 2016).

One test concerns awake Wistar rats. As to the kind of experiment: Acute IV bolus administration, MAP and HR in awake Wistar rats. Format: in vivo, rat. Conditions: IV bolus 0.5 nmol/kg. The protocol:
Wistar and SHR rats were anesthetized with 2.5% tribromoethanol, intraperitoneally (1 mL/100 g). For femoral artery cannulation, cannulas made by connecting 15 cm polyethylene PESO to 4 cm of PE10 polyethylene were used, filled with saline solution (NaCl 0.9%) and heparin (100 IU/0.1 mL). After the animal was placed supine on the operating table, a trichotomy of the right inguinal region of the animal was performed. A small skin incision was made; the femoral neurovascular bundle was located and the femoral artery isolated. The cannula was introduced into the abdominal aorta through the femoral artery and was used for obtaining the cardiovascular parameters. […] The values of mean arterial pressure (MAP) and heart rate (HR) were calculated from PA pulses and recorded by the data acquisition system (BIOPAC System, Model MP150). The pulsatile arterial pressure (PAP) was recorded by a signal sent to a transducer connected to the cannula inserted into the abdominal aorta via the femoral artery. […] Through the card reader software, AcqKnowledge v.3.5.7 (Biopac System), PAP was continuously recorded with a sampling frequency of 2000-4000 Hz. […] After injection of the peptide or saline, cardiovascular parameters were continuously monitored for a period of 5 hours. […]

In test [1] the test system is mesenteric artery rings of SHR. Briefly: Vasorelaxation in mesenteric artery rings of SHR. Also on record: species or system rat. Conditions: expressed as percentage of decrease of phenylephrine contraction. On the procedure:
Rings (2.0 mm) of mesenteric artery (2nd and/or 3rd branches) in spontaneously hypertensive rats (SHR), free from adipose and connective tissue, were maintained in a gasified solution (95% 02 and 5% CO2) of Krebs-Hanseleit to 37° C. After a 15 minute stabilization period, the artery was stretched, gradually, to a resting tension considered optimal with respect to its inner diameter. In each arterial segment, the voltage/diameter was calculated by the internal circumference which corresponds to a transmural pressure of 100 mmHg for a relaxed vessel in situ (IC100) using software specific for standardization resistance arteries. For the experiments, the arteries were maintained with an internal circumference, IC1, calculated using the formula IC1=0.90×IC100, in which the development of strength is maximum, as previously described by Mulvany and Halpern (1977). The effective luminal diameter was determined according to the I1=IC1/π equation. The diameter of the vessels used ranged from 200 to 300 μm.
The arteries were stimulated with a high concentration of potassium chloride (KCl 120 mmol/1), in order to assess their functional integrity. […]
The presence of functional endothelium was assessed by the ability of acetylcholine [ACh] […] The mechanical activity was recorded isometrically using a myograph, and this was connected to a system for data acquisition and a computer. […]

A further test relates to protein kinase B (AKT). Briefly: Activation (Ser473 phosphorylation) of AKT in neonatal rat cardiomyocytes, Western blot. In kind it is cell-based. Conditions: cardiomyocyte cells, 10^−9 mol/L, five minutes. On the procedure:
Wistar neonatal rat cardiomyocytes were cultured in regular growth medium consisting of DEMEM medium supplemented with 10% horse serum, 5% fetal bovine serum, 1% penicillin/streptomycin and 0.1% fibroblast inhibitor. The cells were maintained in serum free medium for three hours before the start of treatment. The study was carried out acutely, for five minutes using a concentration of 10^−9 mol/L of the following drugs diluted in culture medium: Ang-(1-7), arg0-Ang-(1-7) and insulin. Cells incubated with culture medium only were used as control group.
Total protein was isolated from cardiomyocytes cells with lysis buffer containing protease inhibitors cocktail (Days-Peixoto et al., Hypertension 52: 542-548, 2008). Sixty micrograms of total protein was separated by electrophoresis, transferred to a nitrocellulose membrane, blocked with 5% skimmed milk powder diluted in Tris-saline containing 0.1% Tween, and finally incubated overnight with anti-AKT polyclonal antibody (1:1000), anti-Ser473 phospho-Akt (1:600), anti-glyceraldehyde-3-phosphate dehydrogenase (GAPDH—1:1000). Subsequently, the membranes were incubated with fluorescently labeled secondary antibody (1:10000), followed by identification and quantitation by the Odyssey program (LI-COR).
The results are presented as mean+E.PM. […]
A general note: A western blot detects proteins with antibodies after separation by electrophoresis.

On to Asp-Arg-Val-Tyr-Ile-His-Pro [Ang-(1-7)], for which, in the test on awake Wistar rats, the “change in HR” value is on record as “failed to induce significant changes” and the “change in MAP” value was “failed to induce significant changes”. Also, the Emax of vasorelaxation in test [1] is 28%. Also, in the test with protein kinase B (AKT), the “activation of protein kinase B (AKT)” value is listed as “triggered the activation of protein kinase B (AKT)”.
